Test results from US20250171418A1, “PARP1 INHIBITORS AND USES THEREOF” (XinThera, Inc., priority 2022, published 2025).
pEC50, pIC50: −log10 of the molar value.

Tests used:
MDR1 = molecular target: T1, MDR1 (Homo sapiens, UniProt P08183); assay: In vitro human transporter efflux, MDCKII cells expressing MDR1; type: in vitro ADME
T1 construct: expressed in transfected cells; host or cells: MDCKII (Madin-Darby canine kidney) cells
Description: (§1) Madin-Darby canine kidney (MDCKII) cells expressing either MDR1 or BCRP were seeded onto Corning HTS Transwell® 96-well polycarbonate permeable (0.4 μm pore) supports at a density of 545,000 cells/cm2. Cells were incubated for 4-8 days prior to assay, and monolayer integrity was assessed by measuring transepithelial electrical resistance (TEER). […] The final organic solvent concentration was 0.5% (v/v). Bidirectional (apical-to-basolateral and basolateral-to-apical) flux of the test and reference compounds was determined over a 2-hour incubation at 37° C. and […] with a relative humidity of 95%. At the end of the incubation, samples from the apical and basolateral side were taken and then precipitated with acetonitrile containing internal standard. After centrifugation at 3200×g, supernatants were diluted 1:1 (v/v) with water and subjected to analysis via HPLC-MS/MS.
(§2) The apparent permeability (Papp, units of x 10-6 cm/s) was calculated using the following equation: […]
(§3) Where dQ/dt was the rate of drug transport (pmol/s), A was the surface area of the membrane (0.143 cm^2), and DO was the initial donor concentration (nM or pmol/cm3).
(§4) Efflux ratio=Papp(B→A)/Papp(A→B)
(§5) Where Papp(B→A) is the apparent permeability in the basolateral-to-apical direction, and Papp(A→B) is the apparent permeability in the apical-to-basolateral direction.

PARP1 = PARP1 (Homo sapiens, UniProt P09874); assay: biochemical
Description: The assay was performed utilizing the following method:
Compounds were dissolved in DMSO an Echo550 liquid handler was utilized to make serial dilations in the desired concentration range in Optiplate-384F plates. 100% DMSO was used for the high (with protein) and low (without protein) control samples. 20 nL of compound or DMSO alone was added to individual assay plate wells.
PARP1 and PARP2 protein were expressed, purified, and diluted in assay buffer containing 50 mM Tris pH 8.0, 0.001% Triton X-100, 10 mM MgCl2, 150 mM NaCl to a final concentration of 20 nM. The PARPi-FL was then added at a final concentration of 3 nM.
The assay plate was centrifuged at 1000 rpm for 1 min and incubated for 4 h at room temperature.
The fluorescent polarization was read using an Envision plate reader using the following settings: • Excitation filter—FITC FP 480-Ex Slot 3 • Emission filter—FITC FP P-pol 535-Em Slot 4 • 2nd Emission filter—FITC FP S-pol 535-Em Slot 3 • Mirror module—FITC FP Dual Enh-Slot 1
XLFit (equation 201) is used to calculate a reported IC50 for each compound.

[1] = In vivo determination of rat Kp,uu; conditions: brain and plasma, 1 mg/kg, male Sprague-Dawley rats, oral gavage, 0.1 mg/mL at 10 mL/kg, Kp*(fraction unbound in brain homogenate/fraction unbound in plasma)
Description: The equilibrium dialysis method was used to investigate the in vitro binding of test articles and reference compounds to plasma proteins. Plasma samples containing 5 μM test article or blank dialysis buffer solution (PBS, pH 7.4) were added to separate chambers of the dialysis wells of the High Throughput equilibrium Dialysis (HTD) device. The dialysis plate was sealed and placed in an incubator at 37° C. with 5% CO2 with shaking at approximately 100 rpm for 6 hours. All experiments were performed in duplicate. Ketoconazole (5 μM) was used as the reference compound. After incubation, the seal was removed, and 50 μL of post-dialysis samples were pipetted from both buffer and plasma chambers into fresh 96well plates. Samples were equimatrilyzed by either addition of blank plasma to buffer samples or the addition of blank buffer to plasma samples. […] The unbound fractions in plasma were calculated using the concentrations of test articles in buffer and plasma samples according to the following equation: […]
The equilibrium dialysis method was used to investigate the in vitro binding of test articles and reference compounds to rodent brain homogenate. […] The unbound fractions in diluted brain homogenate were calculated using the concentrations of test articles in buffer and homogenate samples according to the following equation: […]

BCRP = molecular target: T2, BCRP (Homo sapiens, UniProt Q9UNQ0); assay: In vitro human transporter efflux, MDCKII cells expressing BCRP; type: in vitro ADME
T2 construct: expressed in transfected cells; host or cells: MDCKII (Madin-Darby canine kidney) cells
T2 sequence (Q9UNQ0 1-655): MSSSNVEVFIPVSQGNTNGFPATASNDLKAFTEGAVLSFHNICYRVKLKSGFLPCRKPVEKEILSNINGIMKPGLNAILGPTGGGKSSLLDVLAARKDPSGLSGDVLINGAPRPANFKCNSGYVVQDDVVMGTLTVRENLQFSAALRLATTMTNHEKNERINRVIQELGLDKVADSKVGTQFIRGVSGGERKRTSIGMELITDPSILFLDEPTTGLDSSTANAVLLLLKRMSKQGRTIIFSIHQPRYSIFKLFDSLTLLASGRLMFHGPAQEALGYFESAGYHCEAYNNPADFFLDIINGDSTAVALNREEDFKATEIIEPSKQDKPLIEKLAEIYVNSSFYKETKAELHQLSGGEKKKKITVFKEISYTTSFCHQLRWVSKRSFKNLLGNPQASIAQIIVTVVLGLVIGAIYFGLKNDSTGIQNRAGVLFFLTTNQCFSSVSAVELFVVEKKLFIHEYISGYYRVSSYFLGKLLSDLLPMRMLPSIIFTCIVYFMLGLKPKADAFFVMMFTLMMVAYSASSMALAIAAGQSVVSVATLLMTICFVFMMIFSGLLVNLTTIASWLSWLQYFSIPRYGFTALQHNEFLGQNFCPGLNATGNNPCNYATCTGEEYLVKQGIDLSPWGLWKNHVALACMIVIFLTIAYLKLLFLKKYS
Description: as §1, §2, §3, §4, §5

DLD-1 BRCA2(−/−) = assay: Cell growth inhibition assay (CellTiter-Glo cell viability); type: cell-based; conditions: Homo sapiens, DLD-1, 168 h, DLD-1 BRCA2(−/−) cells, 7 days, CellTiter Glo 2.0
Description: (§6) Cell proliferation was measured through the cell viability assay using DLD-1 BRCA2(−/−) and parental isogenic pair and MDA-MB-436 (mutated BRCA1) cell lines. The CellTiter-Glo (CTG) based cell viability assay is designed to determine the number of viable cells in the culture because of compound effect, by quantifying ATP, which indicates the presence of metabolically active cells.
(§7) DLD-1 BRCA2(−/−) and parental isogenic pair were cultured in RPMI 1640 supplemented with 10% fetal bovine serum (FBS), and MDA-MB-436 cells were cultured in DMEM supplemented with 10% FBS. Both were cultured at 37° C. with […]. Invention compounds were distributed to the 384 well plate (Corning, 3764) using Echo acoustic liquid handler to form a 1:3 serially diluted final concentration with top dose of 10 or 30 μM.

[2] = tested on: MDA-MB-436 (mutated BRCA1) cell lines; assay: as above; type: cell-based; conditions: Homo sapiens, 168 h; MDA-MB-436 cells, 7 days, CellTiter Glo 2.0
Description: as §6, §7

T1 sequence (P08183 whole entry): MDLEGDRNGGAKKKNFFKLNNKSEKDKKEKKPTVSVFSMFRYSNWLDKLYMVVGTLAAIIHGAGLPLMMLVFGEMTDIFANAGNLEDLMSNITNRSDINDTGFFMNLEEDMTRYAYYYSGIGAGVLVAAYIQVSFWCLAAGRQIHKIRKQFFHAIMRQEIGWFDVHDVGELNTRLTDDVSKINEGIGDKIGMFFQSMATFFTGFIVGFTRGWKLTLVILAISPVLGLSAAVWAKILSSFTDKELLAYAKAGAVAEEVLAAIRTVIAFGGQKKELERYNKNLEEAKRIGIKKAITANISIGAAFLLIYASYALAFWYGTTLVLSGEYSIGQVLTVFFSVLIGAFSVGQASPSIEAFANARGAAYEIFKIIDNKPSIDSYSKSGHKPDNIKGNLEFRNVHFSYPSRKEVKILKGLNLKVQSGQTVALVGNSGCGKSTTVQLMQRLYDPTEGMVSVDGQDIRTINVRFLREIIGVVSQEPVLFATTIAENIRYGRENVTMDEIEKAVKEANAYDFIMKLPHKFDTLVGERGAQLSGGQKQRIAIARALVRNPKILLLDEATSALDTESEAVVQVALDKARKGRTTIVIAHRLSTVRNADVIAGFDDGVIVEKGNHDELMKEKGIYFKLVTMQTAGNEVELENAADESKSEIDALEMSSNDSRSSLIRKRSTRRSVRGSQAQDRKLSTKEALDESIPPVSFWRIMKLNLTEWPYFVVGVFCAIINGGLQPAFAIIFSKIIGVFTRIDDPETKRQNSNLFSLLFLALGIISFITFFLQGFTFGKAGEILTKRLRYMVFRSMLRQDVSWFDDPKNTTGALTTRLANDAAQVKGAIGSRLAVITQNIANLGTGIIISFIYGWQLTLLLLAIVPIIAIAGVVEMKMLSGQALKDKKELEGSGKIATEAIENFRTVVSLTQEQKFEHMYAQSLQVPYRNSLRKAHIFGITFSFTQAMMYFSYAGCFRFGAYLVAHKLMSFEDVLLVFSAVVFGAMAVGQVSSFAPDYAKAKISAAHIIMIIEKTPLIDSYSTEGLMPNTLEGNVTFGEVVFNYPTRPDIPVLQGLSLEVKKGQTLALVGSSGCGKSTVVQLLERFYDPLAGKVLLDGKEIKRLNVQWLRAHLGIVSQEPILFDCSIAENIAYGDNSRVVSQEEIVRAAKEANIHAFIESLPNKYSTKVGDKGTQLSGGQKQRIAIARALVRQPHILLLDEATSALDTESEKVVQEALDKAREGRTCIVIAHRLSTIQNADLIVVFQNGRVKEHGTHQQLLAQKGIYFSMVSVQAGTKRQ
Chain of PARP1 (P09874 whole entry): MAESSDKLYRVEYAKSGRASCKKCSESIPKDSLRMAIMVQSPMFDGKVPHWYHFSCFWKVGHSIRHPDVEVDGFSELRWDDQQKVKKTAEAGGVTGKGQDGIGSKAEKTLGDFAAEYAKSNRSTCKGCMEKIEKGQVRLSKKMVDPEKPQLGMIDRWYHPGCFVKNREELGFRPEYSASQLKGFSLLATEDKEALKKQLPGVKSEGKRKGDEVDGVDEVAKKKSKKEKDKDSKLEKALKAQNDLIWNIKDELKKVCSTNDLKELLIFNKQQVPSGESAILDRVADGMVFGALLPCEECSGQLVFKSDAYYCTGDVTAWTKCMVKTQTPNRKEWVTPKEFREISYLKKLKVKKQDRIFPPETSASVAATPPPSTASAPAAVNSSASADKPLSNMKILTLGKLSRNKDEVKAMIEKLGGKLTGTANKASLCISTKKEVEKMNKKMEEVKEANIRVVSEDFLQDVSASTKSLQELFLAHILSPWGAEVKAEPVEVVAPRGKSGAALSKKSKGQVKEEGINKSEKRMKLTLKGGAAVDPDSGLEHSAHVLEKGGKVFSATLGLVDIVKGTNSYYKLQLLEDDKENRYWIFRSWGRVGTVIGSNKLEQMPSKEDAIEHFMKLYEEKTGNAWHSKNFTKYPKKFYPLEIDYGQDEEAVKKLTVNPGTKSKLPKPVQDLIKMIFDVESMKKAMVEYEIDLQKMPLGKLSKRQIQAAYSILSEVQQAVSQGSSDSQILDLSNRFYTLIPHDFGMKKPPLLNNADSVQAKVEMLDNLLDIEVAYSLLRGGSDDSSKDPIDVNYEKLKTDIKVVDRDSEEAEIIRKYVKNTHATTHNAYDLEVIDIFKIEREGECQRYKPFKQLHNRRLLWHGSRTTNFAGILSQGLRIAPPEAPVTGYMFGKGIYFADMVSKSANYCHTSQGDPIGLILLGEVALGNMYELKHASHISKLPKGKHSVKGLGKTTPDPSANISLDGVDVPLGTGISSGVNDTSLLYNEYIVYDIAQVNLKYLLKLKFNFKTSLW

efflux ratio at 2 h, 10 μM (MDR1; MDCK-MDR1, pH 7.4, Efflux ratio=Papp(B→A)/Papp(A→B)): 1.82
Papp A→B at 2 h, 10 μM (MDR1; MDCK-MDR1, pH 7.4, read-out: MDCK-MDR1 Papp AB): 16.5 ×10⁻⁶ cm/s
Papp B→A at 2 h, 10 μM (MDR1; MDCK-MDR1, pH 7.4, read-out: MDCK-MDR1 Papp BA): 30 ×10⁻⁶ cm/s
pIC50 (PARP1): 8.35
Kp uu [1]: 0.37
efflux ratio at 2 h, 10 μM (BCRP; pH 7.4, Efflux ratio=Papp(B→A)/Papp(A→B)): 0.94
Papp A→B at 2 h, 10 μM (BCRP; pH 7.4, read-out: BCRP Papp AB): 25.7 ×10⁻⁶ cm/s
Papp B→A at 2 h, 10 μM (BCRP; pH 7.4, read-out: BCRP Papp BA): 24.1 ×10⁻⁶ cm/s
pEC50 (DLD-1 BRCA2(−/−)): 8.43
pEC50 [2]: 8.62
Structure (SMILES): Cc1nc2ccc(CN3CCN(c4ccc(C(=O)NC5CC5)nc4F)CC3)c(F)c2[nH]c1=O [Example 1, N-cyclopropyl-6-fluoro-5-{4-[(5-fluoro-2-methyl-3-oxo-4H-quinoxalin-6-yl)methyl]piperazin-1-yl}pyridine-2-carboxamide]
